Results: ChEMBL document CHEMBL3352377, “Discovery of selective and orally bioavailable protein kinase Cθ (PKCθ) inhibitors from a fragment hit” (J Med Chem, 2015)

Legend:
[1] = Permeability from apical to basolateral side in MDCK2-MDR1 cells at pH 7.4; type: ADME, cell-based, Canis lupus familiaris, MDCK-II; settings: dog, MDCK-MDR1, pH 7.4; read-out: permeability
[2] = target: Protein kinase C theta type (Homo sapiens, UniProt Q04759)
Description: Inhibition of human recombinant PKCtheta expressed in Sf21 cells using Bio-cdc peptide substrate and ATP after 60 mins by time-resolved fluorescence in-vitro kinase assay

[3] = Oral bioavailability in rat at 3 mg/kg; type: ADME, organism-based; settings: in vivo
[4] = Inhibition of human recombinant […] expressed in Sf21 cells using Bio-cdc peptide substrate and ATP after 60 mins by time-resolved fluorescence in-vitro kinase assay
[5] = Plasma clearance in rat at 1 mg/kg, iv or 3 mg/kg, po; type: ADME, organism-based
[6] = target: Protein kinase C alpha type (Homo sapiens, UniProt P17252)
[7] = AUC in rat at 1 mg/kg, iv or 3 mg/kg, po; type: ADME, organism-based; settings: plasma
[8] = Unbound intrinsic clearance in rat microsomes; type: ADME, Microsome
[9] = target: Protein kinase C beta type (Homo sapiens, UniProt P05771); experiment: Inhibition of human recombinant PKCbeta expressed in Sf21 cells using Bio-cdc peptide substrate and ATP after 60 mins by time-resolved fluorescence in-vitro kinase assay
Chain of Protein kinase C beta type (P05771 whole entry): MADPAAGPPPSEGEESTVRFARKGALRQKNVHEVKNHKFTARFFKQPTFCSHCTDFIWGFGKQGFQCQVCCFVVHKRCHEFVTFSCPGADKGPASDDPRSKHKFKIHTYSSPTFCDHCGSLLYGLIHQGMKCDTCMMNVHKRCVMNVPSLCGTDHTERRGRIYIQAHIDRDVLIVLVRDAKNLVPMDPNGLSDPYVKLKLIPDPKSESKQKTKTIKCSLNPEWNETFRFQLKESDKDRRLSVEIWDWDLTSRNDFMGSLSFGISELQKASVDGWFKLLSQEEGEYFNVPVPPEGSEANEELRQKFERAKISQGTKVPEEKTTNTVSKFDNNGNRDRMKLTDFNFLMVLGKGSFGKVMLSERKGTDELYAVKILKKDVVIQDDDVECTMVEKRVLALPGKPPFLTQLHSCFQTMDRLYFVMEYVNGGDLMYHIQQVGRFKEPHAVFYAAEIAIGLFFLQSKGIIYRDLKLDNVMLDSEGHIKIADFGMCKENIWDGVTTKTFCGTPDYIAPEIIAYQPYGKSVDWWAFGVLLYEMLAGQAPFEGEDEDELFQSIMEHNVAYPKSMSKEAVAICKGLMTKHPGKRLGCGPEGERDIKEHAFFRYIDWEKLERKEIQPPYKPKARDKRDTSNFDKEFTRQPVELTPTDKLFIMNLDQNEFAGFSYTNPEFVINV

[10] = Unbound intrinsic clearance in mouse microsomes; type: ADME, Microsome
[11] = Unbound intrinsic clearance in human microsomes; type: ADME, Microsome
cells = settings: Homo sapiens, T-Blast, 24 h
Description: Inhibition of anti-CD3/anti-CD28 antibody-induced IL2 production in human T-Blast cells after 24 hrs

[12] = target: T1, Protein kinase C zeta type (Homo sapiens, UniProt Q05513); experiment: Inhibition of human recombinant PKCzeta expressed in Sf21 cells using Bio-cdc peptide substrate and ATP after 60 mins by time-resolved fluorescence in-vitro kinase assay
T1 sequence (Q05513 whole entry): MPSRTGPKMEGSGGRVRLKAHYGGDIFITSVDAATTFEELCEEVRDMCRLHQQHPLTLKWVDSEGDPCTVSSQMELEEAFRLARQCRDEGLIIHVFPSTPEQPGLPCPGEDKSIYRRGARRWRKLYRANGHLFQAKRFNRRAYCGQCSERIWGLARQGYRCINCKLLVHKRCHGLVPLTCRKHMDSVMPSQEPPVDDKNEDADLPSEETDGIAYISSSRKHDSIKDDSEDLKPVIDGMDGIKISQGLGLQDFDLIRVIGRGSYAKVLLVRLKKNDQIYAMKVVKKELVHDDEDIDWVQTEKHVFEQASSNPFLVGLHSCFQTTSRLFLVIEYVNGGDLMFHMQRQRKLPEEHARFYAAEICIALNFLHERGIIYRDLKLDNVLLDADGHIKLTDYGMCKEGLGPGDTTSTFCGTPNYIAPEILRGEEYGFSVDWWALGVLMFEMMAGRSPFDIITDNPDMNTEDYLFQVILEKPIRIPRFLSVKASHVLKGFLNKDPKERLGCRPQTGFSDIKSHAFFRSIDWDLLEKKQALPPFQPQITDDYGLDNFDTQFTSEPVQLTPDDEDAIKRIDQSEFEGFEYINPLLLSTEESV

[13] = target: Protein kinase C gamma type (Homo sapiens, UniProt P05129); experiment: Inhibition of human recombinant PKCgamma expressed in Sf21 cells using Bio-cdc peptide substrate and ATP after 60 mins by time-resolved fluorescence in-vitro kinase assay
[14] = Cmax in rat at 1 mg/kg, iv or 3 mg/kg, po; type: ADME, organism-based; settings: in vivo
[15] = target: Protein kinase C delta type (Homo sapiens, UniProt Q05655); experiment: Inhibition of human recombinant PKCdelta expressed in Sf21 cells using Bio-cdc peptide substrate and ATP after 60 mins by time-resolved fluorescence in-vitro kinase assay
Chain of Protein kinase C delta type (Q05655 whole entry): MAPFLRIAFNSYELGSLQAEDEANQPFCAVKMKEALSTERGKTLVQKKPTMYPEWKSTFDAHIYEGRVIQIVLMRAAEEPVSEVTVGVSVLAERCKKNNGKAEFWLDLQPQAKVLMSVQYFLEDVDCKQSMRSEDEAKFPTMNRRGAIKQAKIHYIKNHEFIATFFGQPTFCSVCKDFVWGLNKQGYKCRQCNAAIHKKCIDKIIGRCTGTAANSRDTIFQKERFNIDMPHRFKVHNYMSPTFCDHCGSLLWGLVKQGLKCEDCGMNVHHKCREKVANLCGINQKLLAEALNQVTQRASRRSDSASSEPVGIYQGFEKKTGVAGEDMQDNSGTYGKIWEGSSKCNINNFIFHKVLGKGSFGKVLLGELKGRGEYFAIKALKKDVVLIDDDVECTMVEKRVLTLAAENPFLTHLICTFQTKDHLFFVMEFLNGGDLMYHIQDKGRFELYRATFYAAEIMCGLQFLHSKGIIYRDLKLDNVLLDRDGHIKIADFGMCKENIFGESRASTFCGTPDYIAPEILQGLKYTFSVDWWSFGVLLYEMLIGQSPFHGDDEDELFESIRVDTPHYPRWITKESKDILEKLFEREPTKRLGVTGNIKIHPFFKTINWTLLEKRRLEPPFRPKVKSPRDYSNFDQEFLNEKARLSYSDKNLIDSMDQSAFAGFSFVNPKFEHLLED

[16] = target: T2, Protein kinase C epsilon type (Homo sapiens, UniProt Q02156); experiment: Inhibition of human recombinant PKCepsilon expressed in Sf21 cells using Bio-cdc peptide substrate and ATP after 60 mins by time-resolved fluorescence in-vitro kinase assay
T2 sequence (Q02156 whole entry): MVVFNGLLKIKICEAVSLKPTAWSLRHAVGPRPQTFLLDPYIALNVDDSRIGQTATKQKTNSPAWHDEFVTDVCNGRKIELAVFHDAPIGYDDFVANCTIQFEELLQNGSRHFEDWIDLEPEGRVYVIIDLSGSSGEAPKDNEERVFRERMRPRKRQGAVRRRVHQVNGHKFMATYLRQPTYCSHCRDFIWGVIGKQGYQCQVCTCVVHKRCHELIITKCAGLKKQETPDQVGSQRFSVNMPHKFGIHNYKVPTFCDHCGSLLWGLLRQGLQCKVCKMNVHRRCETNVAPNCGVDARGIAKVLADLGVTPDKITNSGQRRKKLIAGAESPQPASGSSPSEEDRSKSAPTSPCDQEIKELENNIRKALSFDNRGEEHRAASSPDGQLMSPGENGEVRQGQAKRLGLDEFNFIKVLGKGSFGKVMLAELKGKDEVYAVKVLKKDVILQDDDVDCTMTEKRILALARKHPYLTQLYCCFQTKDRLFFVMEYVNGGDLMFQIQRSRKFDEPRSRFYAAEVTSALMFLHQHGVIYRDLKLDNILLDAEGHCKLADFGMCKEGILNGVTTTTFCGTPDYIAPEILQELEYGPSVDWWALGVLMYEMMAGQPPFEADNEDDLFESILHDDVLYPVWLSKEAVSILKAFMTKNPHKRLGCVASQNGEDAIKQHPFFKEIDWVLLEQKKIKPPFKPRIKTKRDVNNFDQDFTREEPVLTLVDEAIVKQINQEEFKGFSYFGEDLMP

[17] = Half life in rat at 1 mg/kg, iv or 3 mg/kg, po; type: ADME, organism-based; settings: in vivo
Canis familiaris [18] = experiment: Reduction in mean arterial pressure in anesthetized dog cardiovascular model at plasma concentration of 7.7 uM in presence of hexamethonium; type: ADME, organism-based, Canis lupus familiaris; settings: in vivo
Canis familiaris [19] = experiment: Reduction in mean arterial pressure in anesthetized dog cardiovascular model at plasma concentration of 6.9 uM; type: ADME, organism-based, Canis lupus familiaris; settings: in vivo
Canis familiaris [20] = experiment: Reduction in mean arterial pressure in anesthetized dog cardiovascular model at plasma concentration of 1.7 uM; type: ADME, organism-based, Canis lupus familiaris; settings: in vivo
[21] = Cmax in mouse at 3 mg/kg, iv or 10 mg/kg, po; type: ADME, organism-based; settings: in vivo
Canis familiaris [22] = experiment: Increase in dP/dtma in anesthetized dog cardiovascular model at plasma concentration of 7.7 uM; settings: in vivo
[23] = Oral bioavailability in mouse at 10 mg/kg; type: ADME, organism-based; settings: in vivo
Canis familiaris [24] = experiment: Reduction in dP/dtmax in anesthetized dog cardiovascular model at plasma concentration of 2.2 uM in presence of hexamethonium; type: ADME, organism-based, Canis lupus familiaris; parameters: scale not given: the % may be the effect or the level left; settings: in vivo
[25] = AUC in mouse at 3 mg/kg, iv or 10 mg/kg, po; type: ADME, organism-based; settings: plasma
Rattus norvegicus [26] = experiment: Reduction in heart rate in rat cardiovascular model at 3 to 30 mg/kg dosed over 30 mins infusions; settings: in vivo, iv, 0.5 h
[27] = Half life in mouse at 3 mg/kg, iv or 10 mg/kg, po; type: ADME, organism-based; settings: in vivo
Canis familiaris [28] = experiment: Reduction in dP/dtma in anesthetized dog cardiovascular model at plasma concentration of 1.7 uM; type: ADME, organism-based, Canis lupus familiaris; parameters: scale not given: the % may be the effect or the level left; settings: in vivo
[29] = target: Voltage-gated inwardly rectifying potassium channel KCNH2 (Homo sapiens, UniProt Q12809); experiment: Inhibition of human ERG
Chain of Voltage-gated inwardly rectifying potassium channel KCNH2 (Q12809 whole entry, the tested form may be a part): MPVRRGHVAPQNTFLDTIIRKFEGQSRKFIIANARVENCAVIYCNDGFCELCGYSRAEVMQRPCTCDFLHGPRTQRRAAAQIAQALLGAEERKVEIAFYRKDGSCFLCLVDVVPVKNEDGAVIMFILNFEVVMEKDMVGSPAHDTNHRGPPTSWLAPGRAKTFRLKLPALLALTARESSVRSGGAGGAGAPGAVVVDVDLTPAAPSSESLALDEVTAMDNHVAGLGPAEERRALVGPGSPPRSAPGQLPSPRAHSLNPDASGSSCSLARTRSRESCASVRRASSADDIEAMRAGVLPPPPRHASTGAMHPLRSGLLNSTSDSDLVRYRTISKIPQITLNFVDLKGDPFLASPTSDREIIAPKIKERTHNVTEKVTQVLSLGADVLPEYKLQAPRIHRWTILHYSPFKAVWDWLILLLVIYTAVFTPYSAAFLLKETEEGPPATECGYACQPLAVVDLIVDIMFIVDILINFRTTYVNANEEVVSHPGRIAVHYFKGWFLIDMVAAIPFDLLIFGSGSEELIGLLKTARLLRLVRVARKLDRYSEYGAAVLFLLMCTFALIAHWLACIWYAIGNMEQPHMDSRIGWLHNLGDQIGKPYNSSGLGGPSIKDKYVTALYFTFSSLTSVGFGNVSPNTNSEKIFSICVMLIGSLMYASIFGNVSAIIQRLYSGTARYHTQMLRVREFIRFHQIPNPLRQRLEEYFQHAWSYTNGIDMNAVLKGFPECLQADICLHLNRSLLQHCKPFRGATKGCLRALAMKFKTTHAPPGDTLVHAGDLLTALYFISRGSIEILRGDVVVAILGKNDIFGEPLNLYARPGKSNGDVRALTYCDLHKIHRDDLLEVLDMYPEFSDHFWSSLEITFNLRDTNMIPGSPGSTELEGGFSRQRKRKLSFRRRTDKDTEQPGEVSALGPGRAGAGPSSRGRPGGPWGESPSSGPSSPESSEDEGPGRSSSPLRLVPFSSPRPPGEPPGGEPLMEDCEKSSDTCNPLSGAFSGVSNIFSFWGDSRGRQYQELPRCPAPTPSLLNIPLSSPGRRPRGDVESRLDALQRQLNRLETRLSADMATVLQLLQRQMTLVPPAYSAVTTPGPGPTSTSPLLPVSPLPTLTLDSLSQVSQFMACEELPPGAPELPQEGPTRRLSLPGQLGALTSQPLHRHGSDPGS

Rattus norvegicus [30] = experiment: Reduction in mean arterial pressure in rat cardiovascular model at 3 to 30 mg/kg dosed over 30 mins infusions; settings: in vivo, iv, 0.5 h
Canis familiaris [31] = experiment: Reduction in dP/dtmax in anesthetized dog cardiovascular model at plasma concentration of 7.7 uM in presence of hexamethonium; type: ADME, organism-based, Canis lupus familiaris; parameters: scale not given: the % may be the effect or the level left; settings: in vivo
Rattus norvegicus [32] = experiment: Effect on left ventricular dP/dt50 in rat cardiovascular model at 3 to 30 mg/kg dosed over 30 mins infusions; settings: in vivo, iv, 0.5 h
[33] = Plasma clearance in mouse at 3 mg/kg, iv or 10 mg/kg, po; type: ADME, organism-based
Canis familiaris [34] = experiment: Reduction in mean arterial pressure in anesthetized dog cardiovascular model in presence of hexamethonium; settings: in vivo
Rattus norvegicus [35] = experiment: Increase in left ventricular dP/dt50 in rat cardiovascular model at plasma concentration of 1.3 uM dosed over 30 mins infusions; settings: in vivo, iv, 0.5 h
Rattus norvegicus [36] = experiment: Increase in left ventricular dP/dt50 in rat cardiovascular model at plasma concentration of 5.8 uM dosed over 30 mins infusions; settings: in vivo, iv, 0.5 h
Rattus norvegicus [37] = experiment: Increase in left ventricular dP/dt50 in rat cardiovascular model at plasma concentration of 9.7 uM dosed over 30 mins infusions; settings: in vivo, iv, 0.5 h

Chain of Protein kinase C theta type (Q04759 whole entry): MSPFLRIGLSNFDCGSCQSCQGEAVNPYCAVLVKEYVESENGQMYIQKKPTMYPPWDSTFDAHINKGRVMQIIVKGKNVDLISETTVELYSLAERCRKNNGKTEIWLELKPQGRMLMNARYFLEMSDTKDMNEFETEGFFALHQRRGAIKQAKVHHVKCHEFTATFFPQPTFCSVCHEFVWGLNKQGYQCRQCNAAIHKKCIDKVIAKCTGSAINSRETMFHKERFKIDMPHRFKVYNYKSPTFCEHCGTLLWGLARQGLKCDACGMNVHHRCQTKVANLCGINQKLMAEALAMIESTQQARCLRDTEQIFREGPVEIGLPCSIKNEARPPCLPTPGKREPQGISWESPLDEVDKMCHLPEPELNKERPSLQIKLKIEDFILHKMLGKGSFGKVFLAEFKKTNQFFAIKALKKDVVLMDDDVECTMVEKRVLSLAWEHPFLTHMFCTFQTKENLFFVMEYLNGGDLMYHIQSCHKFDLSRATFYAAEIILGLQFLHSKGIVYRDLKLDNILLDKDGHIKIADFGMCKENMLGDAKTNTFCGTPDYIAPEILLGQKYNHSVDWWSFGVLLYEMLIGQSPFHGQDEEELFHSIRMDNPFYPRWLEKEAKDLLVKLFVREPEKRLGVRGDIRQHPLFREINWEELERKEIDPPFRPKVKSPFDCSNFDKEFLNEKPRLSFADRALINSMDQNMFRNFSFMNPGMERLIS

| Structure (SMILES) | Papp A→B [1] [×10⁻⁶ cm/s] | bioavailability [3] [%] | IC50 [4] [nM] | clearance [5] [mL/min/kg] | IC50 [6] [µM] | AUC [7] [ng·h/mL] | CL free [8] [L/h/kg] | IC50 [9] [nM] | CL free [10] [L/h/kg] | CL free [11] [L/h/kg] | IC50 (cells) [nM] | IC50 [12] [µM] | IC50 [13] [µM] | Cmax [14] [ng/mL] | IC50 [15] [nM] | IC50 [16] [nM] | half-life [17] [min] | other results |
| --- | --- | --- | --- | --- | --- | --- | --- | --- | --- | --- | --- | --- | --- | --- | --- | --- | --- | --- |
| C[C@@H]1C(=O)NN=C2COc3cc(-c4ccccc4)c(NC4CNC4)cc3N21 | 0.27 | 5.4 | 860 | 81.7 | 1.8 | 43 | 12 | 87 | 28 | 5.4 | 120 | 8.5 | 13 | 5.3 | 330 | 460 | 354 | IC50 [2]: 49 nM |
| C[C@@H]1C(=O)NN=C2COc3cc(C(F)(F)F)c(NC4CNC4)cc3N21 | 0.44 | 28 | 3900 | 35 | 4.6 | 409 | < 4.7 | 1500 | < 8.3 | 4.8 | 220 | 33 | 7.8 | 80 | 470 | 140 | 330 | Activity (Canis familiaris [18]): -12 mmHg; Activity (Canis familiaris [19]): 3 mmHg; Activity (Canis familiaris [20]): 1 mmHg; Cmax [21]: 342 ng/mL; Activity (Canis familiaris [22]): 34%; bioavailability [23]: 85%; Activity (Canis familiaris [24]): -4%; AUC [25]: 1730 ng·h/mL; Activity (Rattus norvegicus [26]): Toxic; half-life [27]: 162 min; Activity (Canis familiaris [28]): 3%; IC50 [29]: > 30 µM; Activity (Rattus norvegicus [30]): Toxic; Activity (Canis familiaris [31]): -7%; Activity (Rattus norvegicus [32]): Non-toxic; clearance [33]: 96.7 mL/min/kg; Activity (Canis familiaris [34]): -3 mmHg |
| CN1CCN(c2nc(C3=C(c4c[nH]c5ccccc45)C(=O)NC3=O)c3ccccc3n2)CC1 [SOTRASTAURIN] |  |  |  |  |  |  |  |  |  |  |  |  |  |  |  |  |  | Activity (Rattus norvegicus [35]): 14%; Activity (Rattus norvegicus [36]): 35%; Activity (Rattus norvegicus [37]): 76% |
